Measurements published in US9458120B2, “Phenoxypropanol derivative and pharmaceutical composition including the same” (KOREA INSTITUTE OF SCIENCE AND TECHNOLOGY, priority 2011, dated 2016).

Legend:
[1] = target: α1G T-type calcium channel (Homo sapiens, UniProt O43497); experiment: Assay for T-type calcium channel inhibition activity (FDSS6000 calcium imaging, KCl activation); type: cell-based; conditions: 75 s pre-treatment then KCl 75 mM, HEK293 cells expressing α1G T-type calcium channel and Kir2.1
α1G T-type calcium channel, sequence (O43497 whole entry): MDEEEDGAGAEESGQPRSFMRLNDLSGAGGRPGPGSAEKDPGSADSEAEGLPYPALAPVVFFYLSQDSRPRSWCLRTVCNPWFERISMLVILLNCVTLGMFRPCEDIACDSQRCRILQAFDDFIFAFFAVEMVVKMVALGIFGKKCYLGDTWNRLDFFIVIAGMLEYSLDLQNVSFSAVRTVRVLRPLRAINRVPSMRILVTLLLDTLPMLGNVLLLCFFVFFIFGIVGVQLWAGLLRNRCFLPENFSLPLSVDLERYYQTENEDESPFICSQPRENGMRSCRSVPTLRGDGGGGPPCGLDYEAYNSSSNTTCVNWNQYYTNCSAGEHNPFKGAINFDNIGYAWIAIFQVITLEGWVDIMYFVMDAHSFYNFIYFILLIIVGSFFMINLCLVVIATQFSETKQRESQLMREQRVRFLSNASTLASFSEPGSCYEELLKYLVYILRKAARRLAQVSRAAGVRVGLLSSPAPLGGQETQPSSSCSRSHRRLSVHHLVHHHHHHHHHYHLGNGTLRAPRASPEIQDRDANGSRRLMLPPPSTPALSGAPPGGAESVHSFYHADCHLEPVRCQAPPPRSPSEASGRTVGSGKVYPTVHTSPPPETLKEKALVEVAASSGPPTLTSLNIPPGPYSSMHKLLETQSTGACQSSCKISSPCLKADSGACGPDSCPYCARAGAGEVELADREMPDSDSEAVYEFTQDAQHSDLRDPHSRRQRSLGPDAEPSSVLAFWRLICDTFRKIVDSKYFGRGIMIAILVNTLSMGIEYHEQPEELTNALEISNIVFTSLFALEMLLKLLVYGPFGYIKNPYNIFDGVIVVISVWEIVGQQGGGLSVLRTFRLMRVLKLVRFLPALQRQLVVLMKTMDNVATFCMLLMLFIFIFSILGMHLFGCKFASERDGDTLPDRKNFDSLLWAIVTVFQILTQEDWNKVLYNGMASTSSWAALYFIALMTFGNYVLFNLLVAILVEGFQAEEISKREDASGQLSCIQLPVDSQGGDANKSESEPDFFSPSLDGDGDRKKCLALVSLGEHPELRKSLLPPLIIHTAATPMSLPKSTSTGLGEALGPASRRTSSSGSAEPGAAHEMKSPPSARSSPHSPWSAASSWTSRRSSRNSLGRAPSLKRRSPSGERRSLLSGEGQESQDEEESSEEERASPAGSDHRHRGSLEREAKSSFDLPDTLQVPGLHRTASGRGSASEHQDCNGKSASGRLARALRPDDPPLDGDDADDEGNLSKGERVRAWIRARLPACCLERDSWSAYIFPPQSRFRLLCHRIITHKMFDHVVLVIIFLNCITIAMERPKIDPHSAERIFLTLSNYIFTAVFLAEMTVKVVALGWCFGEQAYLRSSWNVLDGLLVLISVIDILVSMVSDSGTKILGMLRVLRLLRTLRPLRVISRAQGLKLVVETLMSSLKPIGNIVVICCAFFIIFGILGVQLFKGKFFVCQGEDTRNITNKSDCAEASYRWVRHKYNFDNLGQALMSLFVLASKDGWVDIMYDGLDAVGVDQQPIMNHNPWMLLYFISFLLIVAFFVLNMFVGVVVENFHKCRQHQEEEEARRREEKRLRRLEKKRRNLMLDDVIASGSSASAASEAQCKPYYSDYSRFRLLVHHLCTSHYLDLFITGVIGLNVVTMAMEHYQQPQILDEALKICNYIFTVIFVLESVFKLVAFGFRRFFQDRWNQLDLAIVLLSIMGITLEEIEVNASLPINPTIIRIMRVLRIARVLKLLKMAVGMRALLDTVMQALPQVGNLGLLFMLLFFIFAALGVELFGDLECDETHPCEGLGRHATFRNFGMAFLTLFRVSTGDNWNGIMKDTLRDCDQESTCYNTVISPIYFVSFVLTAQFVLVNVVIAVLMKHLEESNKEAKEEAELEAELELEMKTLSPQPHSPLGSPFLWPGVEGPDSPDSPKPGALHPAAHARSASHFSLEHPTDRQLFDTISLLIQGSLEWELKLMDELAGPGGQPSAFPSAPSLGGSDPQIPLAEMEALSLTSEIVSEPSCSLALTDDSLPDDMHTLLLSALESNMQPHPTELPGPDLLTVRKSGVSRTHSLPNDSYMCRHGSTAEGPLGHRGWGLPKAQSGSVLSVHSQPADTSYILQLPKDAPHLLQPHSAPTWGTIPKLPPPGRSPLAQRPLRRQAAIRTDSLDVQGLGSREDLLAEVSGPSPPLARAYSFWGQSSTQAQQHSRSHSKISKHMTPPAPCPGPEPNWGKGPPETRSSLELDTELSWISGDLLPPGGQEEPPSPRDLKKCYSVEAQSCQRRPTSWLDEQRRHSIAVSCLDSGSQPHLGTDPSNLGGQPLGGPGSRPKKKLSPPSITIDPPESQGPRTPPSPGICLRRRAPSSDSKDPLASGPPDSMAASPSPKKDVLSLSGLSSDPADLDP
Procedure: At 12-24 hours before the assay for T-type calcium channel activity, cells of HEK293 cell line (α1G cell line: KCTC 10519BP, GenBank, Korea Research Institute of Bioscience and Biotechnology) which stably express α1G T-type calcium channel and Kir2.1, were sub-cultured in a poly-L-lysine (0.05 mg/ml) treated 96-well plate with the density of 4×10^4 per a well using a 96-well cell dispenser (Titertek). On the day of assay, the 96-well plate to which the cells were attached were washed three times with a HEPES buffer solution (unit mM: 150 NaCl, 5 KCl, 1 MgCl2, 2 CaCl2, 10 HEPES, 10 glucose, pH 7.4) using a 96-well plate automatic washing device (Bio Tek), and then reacted with a HEPES buffer solution containing 5 μM fluo-3/AM and 0.001% (w/v) Pluronic F-127 at room temperature for 1 hour, to label with fluorescent dye, and then further washed twice with the HEPES buffer solution. Thereafter, at 10 minutes before the measurement using a FDSS6000 device, a washing with a HEPES buffer solution containing 10 mM CaCl2 was conducted once more, and the final volume was adjusted to 81 μl. Besides the above 96-well plate containing the cells, additional two 96-well drug plates were provided, in which the 96-well plates contained KCl (final concentration: 75 mM) for activating T-type calcium channel and a blocker drug, respectively.
Since most of cell-based HTS (High throughput screening) devices are equipped with a liquid application system for drug injection, but have no liquid sucking system, the blocker drug to be tested and KCl were respectively provided at the five-times higher concentration in 10 mM CaCl2 HEPES buffer solution at the amount of 27 μl, diluted five-times at the final cell plate volume of 135 μl, and then used in this test. In this Experimental Example, therefore, FDSS6000 (Hamamatsu Photonics) was used as an alternative to HTS device.
Specific FDSS6000 measurement conditions are as follows: After recording the reference value of 20 seconds, the change of intracellular calcium concentration which induced by pre-treatment of the drug (the prepared […]) for 75 seconds followed by administration of KCl was measured, in which the percentage (%) inhibition effect of the test drug was determined, through estimating the area of ratio value of 340/380 in the control without treatment of the test drug as 100%. As a reference drug, 10 μM of mibefradil was always used.
For accurate calcium-imagination, the light sources of 4 xenon lamps in FDSS6000 were radiated to make the cells exposed selectively to the excitation wavelength (340 nm and 380 nm) by computer-controlled filter wheel. Data was obtained at interval of each 1.23 second. The emitter fluorescence light inflow through a 515 nm long-pass filter was obtained as an average 340/380 ratio value for each well in the 96-wells by a cooled CCD camera and digital fluorescence analyzer in the device. All image data and analysis were obtained by using a FDSS6000-exclusive program provided by Hamamatsu Photonics, as described above.

TREK-1 channel = target: T1, TREK-1 channel (Rattus norvegicus, UniProt Q920B6); experiment: Assay for TREK channel inhibition activity (whole cell patch clamp recording, COS7 cell transfected with GFP-rTREK-1); type: cell-based; conditions: COS7 cells, GFP-rTREK-1, whole-cell patch clamp; for inhibition at 101 µM: COS-7, Table 3 (value ± spread), 101 μM [sic], read-out: block % at 101 μM; for inhibition at 10 µM: COS-7, Table 2, read-out: block % at 10 μM
T1 construct: expressed in transfected cells; host or cells: COS7 (Korean Cell Line Bank), transient transfection with Effectene
T1 sequence (Q920B6 1-426): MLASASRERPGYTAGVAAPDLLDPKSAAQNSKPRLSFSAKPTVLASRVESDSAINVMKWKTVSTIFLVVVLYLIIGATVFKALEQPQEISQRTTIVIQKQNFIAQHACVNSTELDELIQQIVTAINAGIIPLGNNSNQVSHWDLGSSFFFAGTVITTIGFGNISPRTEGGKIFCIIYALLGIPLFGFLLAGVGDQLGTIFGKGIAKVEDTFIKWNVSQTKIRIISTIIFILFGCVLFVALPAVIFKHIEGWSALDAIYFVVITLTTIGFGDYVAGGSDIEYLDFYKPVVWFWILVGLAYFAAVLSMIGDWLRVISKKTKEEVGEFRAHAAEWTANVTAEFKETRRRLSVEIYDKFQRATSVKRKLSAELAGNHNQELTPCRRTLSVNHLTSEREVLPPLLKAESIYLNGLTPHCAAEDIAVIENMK
Procedure: The inhibition activity of the compound of the present invention against TREK-1 channel was measured by measuring the physiological activity by whole cell patch clamp recording.
COS7 cell (obtained from Korean Cell Line Bank (KCLB)) was transfected with GFP-rTREK-1 gene (accession number: AY727922) using an Effectene transfection reagent (Qiagen), and cultured for 24 hours in an incubator at 37° C. As a culture medium, Dulbecco's modified Eagle's medium (DMEM, GIBCO products from Invitrogen) containing 10% by weight of fetal bovine serum (FBS) and 1% by weight of penicillin/streptomycin (5000 unit/ml) was used. The cells thus prepared were adhered on a cover glass, which was placed on a chamber, and then a recording solution (150 mM NaCl, 10 mM HEPES, 10 mM KCl, 2 mM CaCl2, 5.5 mM D-Glucose, all reagents were purchased from Sigma) was applied. A glass microelectrode was filled with an intracellular solution prepared with the composition of 150 mM KCl, 5 mM EGTA, 10 mM HEPES, 0.5 mM CaCl2, 1 mM MgCl2, 4 mM Mg-ATP, and 0.3 mM Na-GTP (all reagents were purchased from Sigma), followed by whole-cell patch clamp recording. The voltage was fixed at −70 mV using a Digidata 1322A data acquisition system (Molecular Devices) and an Axopatch 200A amplifier (Axon Instruments), and the current generated by applying a voltage ramp from −100 mV to +100 mV for 1 second was measured using a Clampex9.2 program. A difference between the current values measured at +100 mV and −100 mV was defined as a current in the above experiment. The currents before and after blocker treatment were measured so as to determine the inhibition activity.
Block %=100−(current after blocker treatment/current before blocker treatment)*100

Row | SMILES | inhibition [1] [%] | inhibition at 101 µM (TREK-1 channel) [%] | inhibition at 10 µM (TREK-1 channel) [%] | block % at 100 μM (TREK-1 channel; Table 2) [%] | block % at 100 μM (TREK-1 channel; Table 3 (value ± spread)) [%]
1 | O[C@H](COc1ccc(F)cc1)CN1CCC(O)(c2ccccc2)CC1 [KKRE10181] | 35.4 | 53.9 ± 1.62 | – | – | –
2 | O[C@@H](COc1ccc(C(F)(F)F)cc1)CN1CCC(N2CCOCC2)CC1 [KKRE10182, (R)-1-(4-morpholinopiperidin-1-yl)-3-(4-(trifluoromethyl)phenoxy)propan-2-ol] | 12.5 | 46.6 ± 6.25 | – | – | –
3 | O[C@@H](COc1ccc(C(F)(F)F)cc1)CN1CCC(N2CCCCC2)CC1 [KKRE10183, (R)-1-(1,4′-bipiperidin-1′-yl)-3-(4-(trifluoromethyl)phenoxy)propan-2-ol] | 12 | 36.4 ± 7.38 | – | – | –
4 | O[C@@H](COc1ccc(C(F)(F)F)cc1)CN1CCC(N2CCCC2)CC1 [KKRE10184, (R)-1-(4-(pyrrolidin-1-yl)piperidin-1-yl)-3-(4-(trifluoromethyl)phenoxy)propan-2-ol] | 9.54 | 37.4 ± 6.98 | – | – | –
5 | O[C@@H](COc1ccc(C(F)(F)F)cc1)CN1CCC(F)(F)CC1 [KKRE10185, (R)-1-(4,4-difluoropiperidin-1-yl)-3-(4-(trifluoromethyl)phenoxy)propan-2-ol] | 14.8 | 60.8 ± 7.47 | – | – | –
6 | O[C@@H](COc1ccc(C(F)(F)F)cc1)CN1CCC(O)(c2ccccc2)CC1 [KKRE10186, (R)-1-(2-hydroxy-3-(4-(trifluoromethyl)phenoxy)propyl)-4-phenylpiperidin-4-ol] | 46.1 | 54 ± 12.1 | – | – | –
7 | O[C@H](COc1ccc(C(F)(F)F)cc1)CN1CCC(N2CCOCC2)CC1 [KKRE10187, (S)-1-(4-morpholinopiperidin-1-yl)-3-(4-(trifluoromethyl)phenoxy)propan-2-ol] | 10.1 | 49.2 ± 6.75 | – | – | –
8 | O[C@H](COc1ccc(C(F)(F)F)cc1)CN1CCC(N2CCCCC2)CC1 [KKRE10188, (S)-1-(1,4′-bipiperidin-1′-yl)-3-(4-(trifluoromethyl)phenoxy)propan-2-ol] | 5.73 | 55.6 ± 0.23 | – | – | –
9 | Cc1ccc(OC[C@H](O)CN2CCN(CC(=O)NCc3ccccc3)CC2)cc1 [KKRE10196, (R)-N-benzyl-2-(4-(2-hydroxy-3-(p-tolyloxy)propyl)piperazin-1-yl)acetamide] | 26 | 4.7 ± 1.04 | – | – | –

More lines, now with the values ahead:

Row | inhibition [1] [%] | inhibition at 101 µM (TREK-1 channel) [%] | inhibition at 10 µM (TREK-1 channel) [%] | block % at 100 μM (TREK-1 channel; Table 2) [%] | block % at 100 μM (TREK-1 channel; Table 3 (value ± spread)) [%] | SMILES
10 | 27.1 | 13.5 ± 3.9 | – | – | – | Cc1ccc(OC[C@@H](O)CN2CCN(CC(=O)NCc3ccccc3)CC2)cc1 [KKRE10197, (S)-N-benzyl-2-(4-(2-hydroxy-3-(p-tolyloxy)propyl)piperazin-1-yl)acetamide]
11 | 28.6 | 29.9 ± 3.9 | 29.9 | – | – | Cc1ccc(CNC(=O)CN2CCN(C[C@@H](O)COc3ccc(C)cc3)CC2)cc1 [KKRE10198, (R)-2-(4-(2-hydroxy-3-(p-tolyloxy)propyl)piperazin-1-yl)-N-(4-methylbenzyl)acetamide]
12 | 33.9 | 11 ± 2.58 | – | – | – | Cc1ccc(CNC(=O)CN2CCN(C[C@H](O)COc3ccc(C)cc3)CC2)cc1 [KKRE10199, (S)-2-(4-(2-hydroxy-3-(p-tolyloxy)propyl)piperazin-1-yl)-N-(4-methylbenzyl)acetamide]
13 | 43.7 | 30.9 ± 3.86 | 30.9 | – | – | Cc1ccc(OC[C@H](O)CN2CCN(CC(=O)NCc3ccc(C(F)(F)F)cc3)CC2)cc1 [KKRE10200, (R)-2-(4-(2-hydroxy-3-(p-tolyloxy)propyl)piperazin-1-yl)-N-(4-(trifluoromethyl)benzyl)acetamide]
14 | 55.4 | 25.4 ± 7.87 | 25.4 | – | – | Cc1ccc(OC[C@@H](O)CN2CCN(CC(=O)NCc3ccc(C(F)(F)F)cc3)CC2)cc1 [KKRE10201, (S)-2-(4-(2-hydroxy-3-(p-tolyloxy)propyl)piperazin-1-yl)-N-(4-(trifluoromethyl)benzyl)acetamide]
15 | 21.4 | 0.84 ± 1.76 | – | – | – | O=C(CN1CCN(C[C@@H](O)COc2ccccc2)CC1)NCc1ccccc1 [KKRE10202, (R)-N-benzyl-2-(4-(2-hydroxy-3-phenoxypropyl)piperazin-1-yl)acetamide]
16 | 17 | 38 ± 6.42 | 38 | – | – | O=C(CN1CCN(C[C@H](O)COc2ccccc2)CC1)NCc1ccccc1 [KKRE10203, (S)-N-benzyl-2-(4-(2-hydroxy-3-phenoxypropyl)piperazin-1-yl)acetamide]
17 | 12.3 | 16.3 ± 12.9 | 57.5 | – | – | Cc1ccc(CNC(=O)CN2CCN(C[C@@H](O)COc3ccccc3)CC2)cc1 [KKRE10204, (R)-2-(4-(2-hydroxy-3-phenoxypropyl)piperazin-1-yl)-N-(4-methylbenzyl)acetamide]
18 | 67 | 77.5 ± 5.19 | – | 91.23 | 91.22 ± 1.77 | CC(C)Cc1cc(CNC(=O)CN2CCN(C[C@@H](O)COc3ccc(C(F)(F)F)cc3)CC2)nn1-c1ccccc1 [KKRE10210, (R)-2-(4-(2-Hydroxy-3-(4-(trifluoromethyl)phenoxy)propyl)piperazin-1-yl)-N-((5-isobutyl-1-phenyl-1H-pyrazol-3-yl)methyl)acetamide]
19 | 79 | 55.3 ± 6.53 | – | – | – | CC(C)c1cc(CNC(=O)CN2CCN(C[C@@H](O)COc3ccc(C(F)(F)F)cc3)CC2)nn1-c1ccccc1 [KKRE10211, (R)-2-(4-(2-hydroxy-3-(4-(trifluoromethyl)phenoxy)propyl)piperazin-1-yl)-N-((5-isopropyl-1-phenyl-1H-pyrazol-3-yl)methyl)acetamide]
20 | 77.4 | – | 64.7 | – | – | CC(C)Cc1cc(CNC(=O)CN2CCN(C[C@@H](O)COc3ccc(F)cc3)CC2)nn1-c1ccccc1 [KKRE10213, (R)-2-(4-(3-(4-Fluorophenoxy)-2-hydroxypropyl)piperazin-1-yl)-N-((5-isobutyl-1-phenyl-1H-pyrazol-3-yl)methyl)acetamide]
